± gives the standard deviation of the averaged measurements.
Assays:
Assay in all cases: relative cell number vs DMSO control (72 h) (% of DMSO); higher = less growth inhibition (more cells)
Conditions in all cases: sgRNA knockout: sgNT
[1] = system: BT-20
Experimental: (§1)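 QMAP-Seq: a pool of 5 breast cancer cell lines (ZR-75-1, SKBR3, HCC-38, MDA-MB-231, BT-20), each carrying 12 doxycycline-inducible Cas9 sgRNA perturbations (11 knockouts plus non-targeting sgNT), was treated with compounds for 72 h at four 10-fold doses (10 nM-10 uM or 1 nM-1 uM range). Barcodes were amplified and sequenced, and cell number was interpolated from 293T spike-in standard curves. The result is expressed as % of the median of DMSO wells. Two biological replicates.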

[2] = system: HCC-38
Experimental: as §1

[3] = system: MDA-MB-231
Experimental: as §1

[4] = system: SKBR3
Experimental: as §1

[5] = system: ZR-75-1
Experimental: as §1

CN(C)/N=N/c1[nH]cnc1C(N)=O [Dacarbazine]
relative cell number ([1]; 10 nM): 73.1 ± 11
relative cell number ([1]; 100 nM): 96.3 ± 16
relative cell number ([1]; 1000 nM): 108 ± 13
relative cell number ([1]; 10000 nM): 88.5 ± 26
relative cell number ([2]; 10 nM): 96.4 ± 9.5
relative cell number ([2]; 100 nM): 85 ± 22
relative cell number ([2]; 1000 nM): 90.4 ± 13
relative cell number ([2]; 10000 nM): 96.1 ± 20
relative cell number ([3]; 10 nM): 95 ± 23
relative cell number ([3]; 100 nM): 132 ± 22
relative cell number ([3]; 1000 nM): 125 ± 38
relative cell number ([3]; 10000 nM): 69.2 ± 6.3
relative cell number ([4]; 10 nM): 89.1 ± 21
relative cell number ([4]; 100 nM): 91.8 ± 8.6
relative cell number ([4]; 1000 nM): 86.9 ± 3.4
relative cell number ([4]; 10000 nM): 106 ± 30
relative cell number ([5]; 10 nM): 89.3 ± 32
relative cell number ([5]; 100 nM): 87.7 ± 18
relative cell number ([5]; 1000 nM): 93.4 ± 33
relative cell number ([5]; 10000 nM): 94.9 ± 2.4

Cc1nc(Nc2ncc(C(=O)Nc3c(C)cccc3Cl)s2)cc(N2CCN(CCO)CC2)n1 [Dasatinib]
relative cell number ([1]; 10 nM): 72.1 ± 28
relative cell number ([1]; 100 nM): 82.2 ± 4.3
relative cell number ([1]; 1000 nM): 105 ± 1.7
relative cell number ([1]; 10000 nM): 63.9 ± 7.7
relative cell number ([2]; 10 nM): 96.2 ± 12
relative cell number ([2]; 100 nM): 66.2 ± 9.8
relative cell number ([2]; 1000 nM): 65.7 ± 4.4
relative cell number ([2]; 10000 nM): 32.9 ± 2.9
relative cell number ([3]; 10 nM): 100 ± 5.3
relative cell number ([3]; 100 nM): 53.1 ± 6.1
relative cell number ([3]; 1000 nM): 56 ± 14
relative cell number ([3]; 10000 nM): 13.8 ± 4.3
relative cell number ([4]; 10 nM): 53.8 ± 31
relative cell number ([4]; 100 nM): 96.7 ± 42
relative cell number ([4]; 1000 nM): 107 ± 28
relative cell number ([4]; 10000 nM): 41.6 ± 1.3
relative cell number ([5]; 10 nM): 107 ± 27
relative cell number ([5]; 100 nM): 75.8 ± 34
relative cell number ([5]; 1000 nM): 65.4 ± 11
relative cell number ([5]; 10000 nM): 35.9 ± 0.91

Nc1ncn([C@H]2C[C@H](O)[C@@H](CO)O2)c(=O)n1 [Decitabine]
relative cell number ([1]; 10 nM): 92.6 ± 11
relative cell number ([1]; 100 nM): 83 ± 5.8
relative cell number ([1]; 1000 nM): 75.7 ± 17
relative cell number ([1]; 10000 nM): 50.5 ± 15
relative cell number ([2]; 10 nM): 98.2 ± 27
relative cell number ([2]; 100 nM): 80.8 ± 14
relative cell number ([2]; 1000 nM): 49.3 ± 4.6
relative cell number ([2]; 10000 nM): 35.6 ± 3.4
relative cell number ([3]; 10 nM): 83 ± 13
relative cell number ([3]; 100 nM): 78.2 ± 10
relative cell number ([3]; 1000 nM): 31.2 ± 4.4
relative cell number ([3]; 10000 nM): 19.9 ± 0.36
relative cell number ([4]; 10 nM): 104 ± 76
relative cell number ([4]; 100 nM): 68.3 ± 37
relative cell number ([4]; 1000 nM): 55.4 ± 22
relative cell number ([4]; 10000 nM): 45.9 ± 16
relative cell number ([5]; 10 nM): 119 ± 23
relative cell number ([5]; 100 nM): 54.9 ± 30
relative cell number ([5]; 1000 nM): 51.2 ± 7.2
relative cell number ([5]; 10000 nM): 40.4 ± 17

COC(=O)/C=C/C(=O)OC [DimethylFumarate]
relative cell number ([1]; 10 nM): 105 ± 18
relative cell number ([1]; 100 nM): 98.2 ± 2.9
relative cell number ([1]; 1000 nM): 86.1 ± 15
relative cell number ([1]; 10000 nM): 84.8 ± 1.5
relative cell number ([2]; 10 nM): 104 ± 17
relative cell number ([2]; 100 nM): 81.6 ± 2.4
relative cell number ([2]; 1000 nM): 91.4 ± 7.1
relative cell number ([2]; 10000 nM): 91.3 ± 20
relative cell number ([3]; 10 nM): 107 ± 36
relative cell number ([3]; 100 nM): 88.3 ± 9.9
relative cell number ([3]; 1000 nM): 91.2 ± 7.2
relative cell number ([3]; 10000 nM): 98.8 ± 16
relative cell number ([4]; 10 nM): 112 ± 23
relative cell number ([4]; 100 nM): 98.3 ± 3
relative cell number ([4]; 1000 nM): 86.2 ± 8.6
relative cell number ([4]; 10000 nM): 78.2 ± 16
relative cell number ([5]; 10 nM): 95.9 ± 36
relative cell number ([5]; 100 nM): 120 ± 19
relative cell number ([5]; 1000 nM): 97.7 ± 76
relative cell number ([5]; 10000 nM): 81.2 ± 38

COc1cccc2c1C(=O)c1c(O)c3c(c(O)c1C2=O)C[C@@](O)(C(=O)CO)C[C@@H]3O[C@H]1C[C@H](N)[C@H](O)[C@H](C)O1 [Doxorubicin]
relative cell number ([1]; 10 nM): 83 ± 11
relative cell number ([1]; 100 nM): 46 ± 1.4
relative cell number ([1]; 1000 nM): 29.9 ± 5.7
relative cell number ([1]; 10000 nM): 16.4 ± 4.5
relative cell number ([2]; 10 nM): 74 ± 5.4
relative cell number ([2]; 100 nM): 38.3 ± 2.5
relative cell number ([2]; 1000 nM): 17.2 ± 3.1
relative cell number ([2]; 10000 nM): 10.8 ± 3.9
relative cell number ([3]; 10 nM): 75.6 ± 18
relative cell number ([3]; 100 nM): 19.3 ± 8.7
relative cell number ([3]; 1000 nM): 20.3 ± 0.47
relative cell number ([3]; 10000 nM): 7.68 ± 2.6
relative cell number ([4]; 10 nM): 82.6 ± 29
relative cell number ([4]; 100 nM): 34.4 ± 8.3
relative cell number ([4]; 1000 nM): 15 ± 6.8
relative cell number ([4]; 10000 nM): 6.86 ± 0.49
relative cell number ([5]; 10 nM): 50 ± 9.8
relative cell number ([5]; 100 nM): 31.7 ± 2.4
relative cell number ([5]; 1000 nM): 22.2 ± 16
relative cell number ([5]; 10000 nM): 10 ± 4.1

Nc1ccccc1NC(=O)c1ccc(CNC(=O)OCc2cccnc2)cc1 [Entinostat]
relative cell number ([1]; 10 nM): 105 ± 2.6
relative cell number ([1]; 100 nM): 103 ± 22
relative cell number ([1]; 1000 nM): 50.9 ± 7.8
relative cell number ([1]; 10000 nM): 19 ± 12
relative cell number ([2]; 10 nM): 106 ± 1.9
relative cell number ([2]; 100 nM): 105 ± 3.4
relative cell number ([2]; 1000 nM): 64.8 ± 13
relative cell number ([2]; 10000 nM): 36.8 ± 3.2
relative cell number ([3]; 10 nM): 90.4 ± 17
relative cell number ([3]; 100 nM): 115 ± 39
relative cell number ([3]; 1000 nM): 39.4 ± 5.7
relative cell number ([3]; 10000 nM): 12.5 ± 5.6
relative cell number ([4]; 10 nM): 76.3 ± 10
relative cell number ([4]; 100 nM): 102 ± 18
relative cell number ([4]; 1000 nM): 30.3 ± 5.2
relative cell number ([4]; 10000 nM): 5.86 ± 2
relative cell number ([5]; 10 nM): 75.3 ± 4.2
relative cell number ([5]; 100 nM): 103 ± 25
relative cell number ([5]; 1000 nM): 32.6 ± 24
relative cell number ([5]; 10000 nM): 36.1 ± 11
